Patent US5882905A, “Thermostable α-L-arabinofuranosidase from Aureobasidium pullulans” (The United States of America as represented by the …, priority 1997, dated 1999)
“And” between values parts separate entries of the source, which are not always exact repeats. Equal entries are not always repeated. “Also recorded” adds a separate entry of the source.

What was measured:
α-L-AFase [1] = assay: Effect of metal ions and reagents on α-L-AFase activity; type: biochemical, Aureobasidium pullulans
Method: (§1) Enzyme assay. αL-arabinofuranosidase (α-L-AFase) activity was assayed in a reaction mixture (1 ml) containing 1 mM p-nitrophenyl α-L-arabinofuranoside (pNPαAF), 50 mM acetate buffer, pH 4.5 and appropriately diluted enzyme solution. After incubation at 50° C. for 30 min, the reaction was stopped by adding ice-cold 0.5M Na2 CO3 (1 ml) and the color formed was measured at 405 nm. One unit (U) of α-L-AFase activity was defined as the amount of enzyme that liberates 1 μmol p-nitrophenol (pNP) per min in the reaction mixture under these assay conditions.
Effect of metal ions and reagents.

α-L-AFase [2] = assay: Effect of L-arabinose and other sugars on α-L-AFase activity; type: biochemical, Aureobasidium pullulans
Method: as §1
Effect of L-arabinose and other sugars.

[3] = target: α-L-AFase from P. capsulatum; details: Filho et al.; read-out: Ki (competitive inhibition); cited from earlier work
[4] = system: α-L-AFase from A. nidulans; details: L-Arabinose at 80 mM; Fernandez-Espinar et al.; cited from earlier work
[5] = system: Aureobasidium pullulans Y-21792; assay: Effect of carbon source on growth and α-L-arabinofuranosidase production in shake flasks; type: cell-based; details: for Growth (A660) / L-arabinosidase (mU/ml culture) Supernatant / L-arabinosidase (mU/ml culture) Whole broth / time of maximum enzyme production, Supernatant (figure in parenthesis) / time of maximum enzyme production, Whole broth (figure in parenthesis): carbon source 1% w/v, 28° C.; for Growth (A660): 96 h, averages of duplicates; for L-arabinosidase (mU/ml culture) Supernatant / L-arabinosidase (mU/ml culture) Whole broth: maximum in time course; for time of maximum enzyme production, Supernatant (figure in parenthesis) / time of maximum enzyme production, Whole broth (figure in parenthesis): time course over 96 h; for share of the whole culture broth α-L-AFase activity that is extracellular: cultures grown on the named carbon source
Method: Organism, cultivation and enzyme production. The color variant strain NRRL Y-21792 of A. pullulans (also available as NRRL Y-12974) was obtained from the ARS culture collection, NCAUR, Peoria, Ill. The medium used for seed culture and enzyme production was CCY medium (Slininger et al., 1982, Biotechnol. Bioeng., 23:371-384) with the following composition (g/L): 10 ml of solution A, 10 ml of solution B. 100 ml of solution C, 10 g of yeast extract and 10 g of oat spelt xylan. Solution A was a trace mineral solution having the following ingredients (per L): 1.1 g of CaO, 0.4 g of ZnO, 5.4 g of FeCl3.6 H2 O, 0.25 g of CuSO4. 5H2 O, 0.24 g of CoCl2. 6H2 O, 0.06 g of H3 BO3 and 13 ml of concentrated HCl. Solution B (per L) contained 10.1 g of MgO and 45 ml of concentrated HCl. Solution C (per L) contained 64 g of urea, 12 g of KH2 PO4 and 1.8 g of Na2 HPO4. Oat spelt xylan was sterilized separately. The pH of the medium was adjusted to 5.0 with 1M HCl before inoculation. A 125-ml Erlenmeyer flask containing 50 ml of medium with oat spelt xylan (1%, w/v) as a carbon source was inoculated with a loopful of cells taken from a stock slant and incubated at 28° C. on a rotary shaker (200 rpm) for 2 days. The shake flasks (250-ml Erlenmeyer flask containing 100 ml medium with 1% oat spelt xylan) were inoculated with 2 ml of this culture and cultivated on a rotary shaker (200 rpm) at 28° C. After 3 days, the cells were removed from the culture broth by centrifugation (18,000×g, 20 min). The resulting supernatant solution was used as the crude enzyme preparation.
Medium and enzyme production. The media used for seed culture and enzyme production were prepared as described in Example 1 with the exception of the particular carbon source. The shake flasks (125-ml Erlenmeyer flask containing 50 ml medium) were inoculated with 2 ml of seed culture (prepared using L-arabinose as carbon source) and cultivated on a rotary shaker (200 rpm) at 28° C. for 4 days. At intervals, ~2 ml of the whole culture broth were withdrawn, and the cells and unutilized insoluble substrates were removed from the culture broth by centrifugation (18,000×g, 20 min).
Analytical procedures. α-L-AFase activity was assayed as described in Example 1. Cell growth was monitored by measuring optical density of the culture broth at 660 nm (A660).

purified α-L-AFase [6] = assay: Substrate specificity and kinetic analysis with aryl-glycosides; type: biochemical, Aureobasidium pullulans; details: for Relative initial rate of hydrolysis (percentage of that obtained with pNPαAF): substrate 4 mM, enzyme 28 mU/ml, 15 min reaction
Method: as §1
(§2) Other methods. Protein was estimated by the method of Lowry et al. (1951, J. Biol. Chem., 193:265-275) with bovine serum albumin as the standard. Protein in the column effluents was monitored by measuring absorbance at 280 nm. Sodium dodecyl sulfate-polyacrylamide gel electrophoresis (SDS-PAGE) was performed on a 7.5% gel according to Laemmli (1970, Nature, 227:680-685). The molecular weight of the native enzyme was determined by gel filtration on Bio-Gel A-0.5m as described by Andrews (1965, Biochem. J., 91:595-606), using apoferritin (MW 443,000), sweet potato β-amylase (200,000), yeast alcohol dehydrogenase (150,000), bovine serum albumin (66,000) and ovalbumin (45,000) as standard proteins. […] The Km and Vmax values were determined by the double-reciprocal plot method of Lineweaver-Burk (1934, J. Am. Chem. Soc., 56:658-666) using the KINET software program. Arabinose analysis was performed by HPLC (Spectra-Physics, San Jose, Calif.) using an ion moderated partition chromatography column (Aminex HPX-87C). The column was maintained at 85° C., and the sugars were eluted with Milli-Q water at a flow rate of 0.6 ml/min. Peaks were detected by refractive index, and identified and quantified by comparison to retention times of authentic standards (L-arabinose, D-glucose, D-xylose).
Substrate specificity and kinetic analysis. Relative initial rates of hydrolysis of p-nitrophenyl-α-L-arabinopyranoside, p-nitrophenyl-β-D-glucoside, p-nitrophenyl-β-D-glucoside, p-nitrophenyl-β-D-xyloside, p-nitrophenyl-β-D-cellobioside and p-nitrophenyl-β-D-galactoside (4 mM each) by the purified α-L-AFase (28 mU/ml) were 3.4, 2.3, 1.7, 3.1, 0.0, and 0.1%, respectively (expressed as a percentage of that obtained with pNPαAF at pH 4.5 and 75° C., 15 min reaction). The rate dependence of the enzymatic reaction on the pNPαAF concentration at pH 4.5 and 75° C. followed Michaelis-Menten kinetics.

purified α-L-AFase [7] = assay: Hydrolysis of arabinan, debranched arabinan and arabinoxylans (arabinose by HPLC); type: biochemical, Aureobasidium pullulans
Method: FIG. 4. Time course of arabinan (1%, w/v) hydrolysis by purified α-L-arabinofuranosidase (0.445 U/ml) from A. pullulans Y-21792 at pH 4.5 and 50° C.
as §2, with “Arabinose analysis was performed by HPLC (Spectra-Physics, San Jose, Calif.) using an ion moderated partition chromatography column (Aminex HPX-87C). The column was maintained at 85° C., and the sugars were eluted with Milli-Q water at a flow rate of 0.6 ml/min.” left out
Hydrolysis of arabinan, debranched arabinan and arabinoxylans. […] Only arabinose was detected in the reaction product. […]

O[C@H](CS)[C@H](O)CS (racemic) [DTT, dithiothreitol, reference compound]
effect on enzyme activity (α-L-AFase [1]; 10 mM): not affected; also recorded: not inhibited

[Ca+2] [Ca^2+]
requirement of metal ion for activity (α-L-AFase [1]; 5 mM): did not require

[Co+2] [Co^2+]
requirement of metal ion for activity (α-L-AFase [1]; 0.5 mM): did not require

O=C[C@H](O)[C@@H](O)[C@@H](O)CO [L-arabinose]
inhibition of α-L-AFase activity (α-L-AFase [2]; up to 1.2M (21.6%)): substantially no inhibition; also recorded: not at all inhibitory; also recorded: not inhibited | Ki [3]: 16.4 mM | reduction of the hydrolytic activity [4]: 40% | Growth (A660) [5]: 7.6 | L-arabinosidase (mU/ml culture) Supernatant [5]: 199 mU/ml culture | L-arabinosidase (mU/ml culture) Whole broth [5]: 500 mU/ml culture | time of maximum enzyme production, Supernatant (figure in parenthesis) [5]: 48 | time of maximum enzyme production, Whole broth (figure in parenthesis) [5]: 58 | share of the whole culture broth α-L-AFase activity that is extracellular [5]: 40%

OC[C@H](O)C(O)[C@@H](O)CO [L-arabitol]
inhibition of α-L-AFase activity (α-L-AFase [2]; each at 0.11M): did not inhibit | Growth (A660) [5]: 7.2 | L-arabinosidase (mU/ml culture) Supernatant [5]: 95 mU/ml culture | L-arabinosidase (mU/ml culture) Whole broth [5]: 441 mU/ml culture | time of maximum enzyme production, Supernatant (figure in parenthesis) [5]: 48 | time of maximum enzyme production, Whole broth (figure in parenthesis) [5]: 34 | share of the whole culture broth α-L-AFase activity that is extracellular [5]: 22%

[Mg+2] [Mg^2+]
requirement of metal ion for activity (α-L-AFase [1]; 5 mM): did not require

[Mn+2] [Mn^2+]
requirement of metal ion for activity (α-L-AFase [1]; 5 mM): did not require

O=C[C@H](O)[C@@H](O)[C@H](O)CO [Xylose]
inhibition of α-L-AFase activity (α-L-AFase [2]; each at 0.11M): did not inhibit | Growth (A660) [5]: 8.0 | L-arabinosidase (mU/ml culture) Supernatant [5]: 88 mU/ml culture | L-arabinosidase (mU/ml culture) Whole broth [5]: 129 mU/ml culture | time of maximum enzyme production, Supernatant (figure in parenthesis) [5]: 48 | time of maximum enzyme production, Whole broth (figure in parenthesis) [5]: 48 | share of the whole culture broth α-L-AFase activity that is extracellular [5]: About 70%

O=C[C@H](O)[C@@H](O)[C@@H](O)[C@H](O)CO [galactose]
inhibition of α-L-AFase activity (α-L-AFase [2]; each at 0.11M): did not inhibit

O=C[C@H](O)[C@@H](O)[C@H](O)[C@H](O)CO [glucose]
inhibition of α-L-AFase activity (α-L-AFase [2]; each at 0.11M): did not inhibit

O=C[C@@H](O)[C@@H](O)[C@H](O)[C@H](O)CO [mannose]
inhibition of α-L-AFase activity (α-L-AFase [2]; each at 0.11M): did not inhibit

O=[N+]([O-])c1ccc(O[C@@H]2OC[C@H](O)[C@H](O)[C@H]2O)cc1 [p-nitrophenyl-α-L-arabinopyranoside]
Relative initial rate of hydrolysis (percentage of that obtained with pNPαAF) (purified α-L-AFase [6]; pH 4.5 and 75° C.): 3.4%

O=[N+]([O-])c1ccc(O[C@@H]2O[C@H](CO)[C@@H](O[C@@H]3O[C@H](CO)[C@@H](O)[C@H](O)[C@H]3O)[C@H](O)[C@H]2O)cc1 [p-nitrophenyl-β-D-cellobioside]
Relative initial rate of hydrolysis (percentage of that obtained with pNPαAF) (purified α-L-AFase [6]; pH 4.5 and 75° C.): 0.0%

O=[N+]([O-])c1ccc(O[C@@H]2O[C@H](CO)[C@H](O)[C@H](O)[C@H]2O)cc1 [p-nitrophenyl-β-D-galactoside]
Relative initial rate of hydrolysis (percentage of that obtained with pNPαAF) (purified α-L-AFase [6]; pH 4.5 and 75° C.): 0.1%

O=[N+]([O-])c1ccc(O[C@@H]2O[C@H](CO)[C@@H](O)[C@H](O)[C@H]2O)cc1 [p-nitrophenyl-β-D-glucoside]
Relative initial rate of hydrolysis (percentage of that obtained with pNPαAF) (purified α-L-AFase [6]; pH 4.5 and 75° C.): 2.3% and 1.7%

O=[N+]([O-])c1ccc(O[C@@H]2OC[C@@H](O)[C@H](O)[C@H]2O)cc1 [p-nitrophenyl-β-D-xyloside]
Relative initial rate of hydrolysis (percentage of that obtained with pNPαAF) (purified α-L-AFase [6]; pH 4.5 and 75° C.): 3.1%

O=C(O)c1cc[c]([Hg][Cl])cc1 [pCMB, p-chloromercuribenzoic acid, reference compound]
effect on enzyme activity (α-L-AFase [1]; 0.2 mM): not affected; also recorded: not inhibited

O=[N+]([O-])c1ccc(O[C@@H]2O[C@@H](CO)[C@H](O)[C@H]2O)cc1 [pNPαAF, p-nitrophenyl α-L-arabinofuranoside]
Vmax (purified α-L-AFase [6]; pH 4.5 and 75° C., reciprocal plot): 6.99 μmol pNP. min^-1.mg^-1 protein | Km (purified α-L-AFase [6]; pH 4.5 and 75° C., reciprocal plot, read-out: apparent Km): 260 µM | Substrate inhibition (purified α-L-AFase [6]; tested up to 8 mM): not observed; also recorded: not inhibited

OC[C@@H](O)[C@H](O)[C@@H](O)CO [xylitol]
inhibition of α-L-AFase activity (α-L-AFase [2]; each at 0.11M): did not inhibit | Growth (A660) [5]: 9.1 | L-arabinosidase (mU/ml culture) Supernatant [5]: 47 mU/ml culture | L-arabinosidase (mU/ml culture) Whole broth [5]: 94 mU/ml culture | time of maximum enzyme production, Supernatant (figure in parenthesis) [5]: 58 | time of maximum enzyme production, Whole broth (figure in parenthesis) [5]: 48

arabinogalactan
Growth (A660) [5]: 3.1 | L-arabinosidase (mU/ml culture) Supernatant [5]: 9 mU/ml culture | L-arabinosidase (mU/ml culture) Whole broth [5]: 45 mU/ml culture | time of maximum enzyme production, Supernatant (figure in parenthesis) [5]: 34 | time of maximum enzyme production, Whole broth (figure in parenthesis) [5]: 34 | arabinose detected by HPLC as product of hydrolysis (purified α-L-AFase [7]): no arabinose was detected
